US11034650B2, “Compounds useful for treating a Mannheimia haemolytica or Histophilus somni infection” (Intervet Inc., priority 2016, dated 2021)
Values after ≈ are worked out from the molar mass of the structure shown.

What was measured:
Type in all cases: cell-based
[1] = system: Pasteurella multocida PM 6391 (ATCC 43137, reference strain); experiment: MIC, broth-microdilution (CLSI VET01-A4), strain PM 6391; settings: Pasteurella multocida strain PM 6391, broth-microdilution; unit assumed
How it was run: (§1)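 Serial twofold dilutions; unaided-eye turbidity scoring; lowest clear well = MIC.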

[2] = system: Mannheimia haemolytica MH 12587 (1071, BRD field isolate, macrolide-resistance: erm+, E+); experiment: MIC, broth-microdilution (CLSI VET01-A4), strain MH 12587; settings: Mannheimia haemolytica strain MH 12587, broth-microdilution; unit assumed
How it was run: as §1

[3] = system: Pasteurella multocida PM 12080 (IV102277-0093, BRD field isolate); experiment: MIC, broth-microdilution (CLSI VET01-A4), strain PM 12080; settings: Pasteurella multocida strain PM 12080, broth-microdilution; unit assumed
How it was run: as §1

[4] = system: Pasteurella multocida PM 10775 (080130003051, BRD field isolate); experiment: MIC, broth-microdilution (CLSI VET01-A4), strain PM 10775; settings: Pasteurella multocida strain PM 10775, broth-microdilution; unit assumed
How it was run: as §1

[5] = system: Mannheimia haemolytica MH 10720 (154, BRD field isolate); experiment: MIC, broth-microdilution (CLSI VET01-A4), strain MH 10720; settings: Mannheimia haemolytica strain MH 10720, broth-microdilution; unit assumed
How it was run: as §1

[6] = system: Mannheimia haemolytica MH 13093 (XB0472-6014.1, BRD field isolate); experiment: MIC, broth-microdilution (CLSI VET01-A4), strain MH 13093; settings: Mannheimia haemolytica strain MH 13093, broth-microdilution; unit assumed
How it was run: as §1

[7] = system: Mannheimia haemolytica MH 6374 (ATCC 33396, reference strain); experiment: MIC, broth-microdilution (CLSI VET01-A4), strain MH 6374; settings: Mannheimia haemolytica strain MH 6374, broth-microdilution; unit assumed
How it was run: as §1

[8] = system: Mannheimia haemolytica MH 6357 (M7/2, reference strain, cattle infection strain); experiment: MIC, broth-microdilution (CLSI VET01-A4), strain MH 6357; settings: Mannheimia haemolytica strain MH 6357, broth-microdilution; unit assumed
How it was run: as §1

[9] = system: Mannheimia haemolytica MH 13065 (XB0446-6003.9, BRD field isolate); experiment: MIC, broth-microdilution (CLSI VET01-A4), strain MH 13065; settings: Mannheimia haemolytica strain MH 13065, broth-microdilution; unit assumed
How it was run: as §1

[10] = system: Pasteurella multocida PM 6267 (P 2225 (L386), reference strain, mouse infection strain); experiment: MIC, broth-microdilution (CLSI VET01-A4), strain PM 6267; settings: Pasteurella multocida strain PM 6267, broth-microdilution; unit assumed
How it was run: as §1

SMILES | MIC PM 6391 [1] [µg/mL] | MIC MH 12587 [2] [µg/mL] | MIC PM 12080 [3] [µg/mL] | MIC PM 10775 [4] [µg/mL] | MIC MH 10720 [5] [µg/mL] | MIC MH 13093 [6] [µg/mL] | MIC MH 6374 [7] [µg/mL] | MIC MH 6357 [8] [µg/mL] | MIC MH 13065 [9] [µg/mL] | MIC PM 6267 [10] [µg/mL]
CC(C)([C@H](NC(=O)c1ccc(C#Cc2ccc(CNC3CCC3)cc2)cc1)C(=O)NO)S(C)(=O)=O [Compound 263] | 0.4 (≈ 0.804 µM) | 6.3 (≈ 12.7 µM) | 0.2 (≈ 0.402 µM) | ≤ 0.1 | 0.8 (≈ 1.61 µM) | 3.1 (≈ 6.23 µM) | 3.1 (≈ 6.23 µM) | 6.3 (≈ 12.7 µM) | 3.1 (≈ 6.23 µM) | ≤ 0.1
CCNCc1ccc(C#Cc2ccc(C(=O)N[C@H](C(=O)NO)C(C)C)cc2)cc1 [Compound 201] | 0.8 (≈ 2.03 µM) | 12.5 (≈ 31.8 µM) | 0.4 (≈ 1.02 µM) | ≤ 0.1 | 3.1 (≈ 7.88 µM) | 6.3 (≈ 16 µM) | 6.3 (≈ 16 µM) | 12.5 (≈ 31.8 µM) | 6.3 (≈ 16 µM) | 0.4 (≈ 1.02 µM)
CC(C)([C@H](NC(=O)c1ccc(C#Cc2ccc(CNCc3nccs3)cc2)cc1)C(=O)NO)S(C)(=O)=O [C.274] | ≤ 0.1 | 0.4 (≈ 0.74 µM) | ≤ 0.1 | ≤ 0.1 | ≤ 0.1 | 0.2 (≈ 0.37 µM) | 0.2 (≈ 0.37 µM) | 0.2 (≈ 0.37 µM) | 0.2 (≈ 0.37 µM) | ≤ 0.1
CCCNCc1ccc(C#Cc2ccc(C(=O)N[C@H](C(=O)NO)C(C)=NOC)cc2)cc1 [Compound 387] | 0.4 (≈ 0.916 µM) | 1.6 (≈ 3.67 µM) | 0.2 (≈ 0.458 µM) | 1.6 (≈ 3.67 µM) | 3.1 (≈ 7.1 µM) | 3.1 (≈ 7.1 µM) | 6.3 (≈ 14.4 µM) | 6.3 (≈ 14.4 µM) | 6.3 (≈ 14.4 µM) | 25 (≈ 57.3 µM)
CC(C)([C@H](NC(=O)c1ccc(C#Cc2ccc(CNCC#N)cc2)cc1)C(=O)NO)S(C)(=O)=O [Compound 266] | ≤ 0.1 | 1.6 (≈ 3.32 µM) | ≤ 0.1 | ≤ 0.1 | ≤ 0.1 | 0.8 (≈ 1.66 µM) | 0.4 (≈ 0.829 µM) | 0.8 (≈ 1.66 µM) | 0.8 (≈ 1.66 µM) | ≤ 0.1
CSC(C)(C)[C@H](NC(=O)c1ccc(C#Cc2ccc(CNCC(F)(F)F)nc2)cc1)C(=O)NO [Compound 345] | 0.8 (≈ 1.62 µM) | 1.6 (≈ 3.24 µM) | 0.4 (≈ 0.809 µM) | ≤ 0.1 | ≤ 0.1 | 1.6 (≈ 3.24 µM) | 1.6 (≈ 3.24 µM) | 0.8 (≈ 1.62 µM) | 0.8 (≈ 1.62 µM) | 0.8 (≈ 1.62 µM)
CC[C@H](C)[C@H](NC(=O)c1ccc(C#Cc2ccc(CNCC3CCCO3)cc2)cc1)C(=O)NO (stereo partly shown) [Compound 183] | 1.6 (≈ 3.45 µM) | 1.6 (≈ 3.45 µM) | 0.8 (≈ 1.73 µM) | ≤ 0.1 | 0.8 (≈ 1.73 µM) | 3.1 (≈ 6.69 µM) | 3.1 (≈ 6.69 µM) | 1.6 (≈ 3.45 µM) | 3.1 (≈ 6.69 µM) | 0.4 (≈ 0.863 µM)
COc1ccc(CNCc2ccc(C#Cc3ccc(C(=O)N[C@H](C(=O)NO)C(C)(C)S(C)(=O)=O)cc3)cn2)cc1 [Compound 352] | 0.4 (≈ 0.708 µM) | 3.1 (≈ 5.49 µM) | 0.2 (≈ 0.354 µM) | ≤ 0.1 | 0.2 (≈ 0.354 µM) | 1.6 (≈ 2.83 µM) | 0.8 (≈ 1.42 µM) | 0.8 (≈ 1.42 µM) | 1.6 (≈ 2.83 µM) | 0.8 (≈ 1.42 µM)
CSC(C)(C)[C@H](NC(=O)c1ccc(C#Cc2ccc(CNCC#N)nc2)cc1)C(=O)NO [Compound 342] | 1.6 (≈ 3.54 µM) | 6.3 (≈ 14 µM) | 0.8 (≈ 1.77 µM) | 0.2 (≈ 0.443 µM) | 0.4 (≈ 0.886 µM) | 3.1 (≈ 6.87 µM) | 3.1 (≈ 6.87 µM) | 1.6 (≈ 3.54 µM) | 3.1 (≈ 6.87 µM) | 1.6 (≈ 3.54 µM)
CC(C)([C@H](NC(=O)c1ccc(C#Cc2ccc(CNCc3ncccn3)nc2)cc1)C(=O)NO)S(C)(=O)=O [Compound 356] | 3.1 (≈ 5.78 µM) | 12.5 (≈ 23.3 µM) | 1.6 (≈ 2.98 µM) | 0.2 (≈ 0.373 µM) | 3.1 (≈ 5.78 µM) | 12.5 (≈ 23.3 µM) | 6.3 (≈ 11.7 µM) | 6.3 (≈ 11.7 µM) | 6.3 (≈ 11.7 µM) | 6.3 (≈ 11.7 µM)
